# Experimental data published in patent publication EP4752152A1, “STEROID COMPOUND, AND PREPARATION METHOD THEREFOR AND USE THEREOF” (Cholesgen (Shanghai) Co.Ltd., priority 2023, dated 2025).
# Key:
# SREBP pathway = test: SREBP luciferase reporter gene system (SRE-luciferase assay); assay type: cell-based, human; conditions: Huh-7/SRE-luc cells, sterol-deficient medium, 0.01-10 µM
# Summary of the method: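 Huh-7 cells stably carrying LDLR promoter-luciferase plus GFP were treated 16 h in sterol-deficient medium (5% lipoprotein-deficient serum, 2 µM lovastatin, 10 µM mevalonic acid) at 0.01–10 µM. Luciferase/GFP ratio measured as pathway activity; inhibition versus DMSO fitted to a four-parameter model for IC50.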
# [1] = Solubility in fasted-state simulated intestinal fluid (FaSSIF); assay type: physicochemical; conditions: FaSSIF pH 6.5, 300 µM sample solution, room temperature
# Procedure: Compound powder was dissolved in DMSO to prepare a 10.0 mM stock solution for later use. 0.021 g NaOH, 0.198 g NaH2PO4, and 0.309 g NaCl were weighed and added to 50.0 mL of ultrapure water. After thorough mixing, the pH was adjusted to 6.5 using HCl or NaOH. Then, 0.112 g of FaSSIF powder was added. After complete dissolution, the solution was allowed to stand at room temperature for 2 hours for later use. A certain volume of the compound stock solution was added to a certain volume of FaSSIF to prepare a 300 µM sample solution, which was mixed at room temperature under 1000 rpm for 1 hour. After 1 hour, the sample was centrifuged, and a certain volume of supernatant was taken. The termination solution was added to precipitate the sample, which was then thoroughly mixed and centrifuged for 20 minutes. The supernatant was then taken again, diluted with dilution solution, and then analyzed by liquid chromatography-tandem mass spectrometry (LC-MS/MS). The concentration of the test compound in the samples was quantitatively determined using LC-MS/MS. Table 3: FaSSIF solubility results of compounds from some examples
# [2] = tested on: Fatty Acid Synthase (FASN) gene; test: Inhibition of FASN gene expression (qPCR) in Huh-7 cells; assay type: cell-based, human; conditions: Homo sapiens, Huh-7, 16 h, Huh-7 cells, starvation medium, 16 hours, qPCR; class symbols; read-out: FASN IC50
# Summary of the method: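 Huh-7 cells switched to starvation DMEM (5% LPDS, 2 µM lovastatin, 10 µM mevalonate) and treated 16 h with compound, top 3000 nM, 3-fold dilutions, 5 concentrations. FASN mRNA by RT-qPCR; inhibition relative to DMSO, IC50 from four-parameter fit.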
# [3] = FaSSIF, pH 6.5, fassif, kinetic from dmso stock
Compound,IC50 (SREBP pathway; 16 hours) [µM],solubility at 1 h ([1]; 60 min) [µM],"IC50 (SREBP pathway; Homo sapiens, Huh-7, 16 h) [µM]","solubility at 1 h [1, 3] [µM]",IC50 [2] [nM]
"C[C@H](CCCC(O)c1cccc2c1cnn2C)[C@H]1CC[C@H]2[C@H]3[C@H](CC[C@]12C)[C@@]1(C)CC[C@H](O)[C@H](O)[C@@H]1CC3(F)F (single isomer, unassigned) [Compound 250, (1R,3aS,3bS,5aR,6R,7S,9aR,9bS,11aR)-4,4-difluoro-1-[(2R,6R)-6-hydroxy-6-(1-methylindazol-4-yl)hexan-2-yl]-9a,11a-dimethylhexadecahydro-1H-cyclopenta[1,2-a]phenanthrene-6,7-diol or (1R,3aS,3bS,5aR,6R,7S,9aR,9bS,11aR)-4,4-difluoro-1-[(2R,6S)-6-hydroxy-6-(1-methylindazol-4-yl)hexan-2-yl]-9a,11a-dimethylhexadecahydro-1H-cyclopenta[1,2-a]phenanthrene-6,7-diol]",0.066,32.95,,,
"COc1cc(F)c([C@H](O)CCC[C@@H](C)[C@H]2CC[C@H]3[C@H]4[C@H](CC[C@]23C)[C@@]2(C)CC[C@H](O)[C@H](O)[C@@H]2CC4(F)F)c(F)n1 (single isomer, unassigned) [Compound 240]",,,0.042,146,
"C[C@H](CCCC(O)c1cccc2ncn(C)c12)[C@H]1CC[C@H]2[C@H]3[C@H](CC[C@]12C)[C@@]1(C)CC[C@H](O)[C@H](O)[C@@H]1CC3(F)F (single isomer, unassigned) [Compound 298, (1R,3aS,3bS,5aR,6R,7S,9aR,9bS,11aR)-4,4-difluoro-1-[(2R,6S)-6-hydroxy-6-(3-methylbenzo[d]imidazol-4-yl)hexan-2-yl]-9a,11a-dimethylhexadecahydro-1H-cyclopenta[1,2-a]phenanthrene-6,7-diol or (1R,3aS,3bS,5aR,6R,7S,9aR,9bS,11aR)-4,4-difluoro-1-[(2R,6R)-6-hydroxy-6-(3-methylbenzo[d]imidazol-4-yl)hexan-2-yl]-9a,11a-dimethylhexadecahydro-1H-cyclopenta[1,2-a]phenanthrene-6,7-diol]",0.093,,,18.2,
"C[C@H](CCCC(O)c1ccc(F)nc1OC1CC1)[C@H]1CC[C@H]2[C@H]3[C@H](CC[C@]12C)[C@@]1(C)CC[C@H](O)[C@H](O)[C@@H]1CC3(F)F (stereo partly drawn) [Compound 328, (1R,3aS,3bS,5aR,6R,7S,9aR,9bS,11aR)-1-[(2R)-6-[2-(cyclopropyloxy)-6-fluoropyridin-3-yl]-6-hydroxyhexan-2-yl]-4,4-difluoro-9a,11a-dimethylhexadecahydro-1H-cyclopenta[1,2-a]phenanthrene-6,7-diol]",,,0.043,263,
"C[C@H](CCCC(O)c1cccc2cn[nH]c12)[C@H]1CC[C@H]2[C@H]3[C@H](CC[C@]12C)[C@@]1(C)CC[C@H](O)[C@H](O)[C@@H]1CC3(F)F (stereo partly drawn) [Compound 224, (1R,3aS,3bS,5aR,6R,7 S,9aR,9bS,11aR)-4,4-Difluoro-1-[(2R)-6-hydroxy-6-(1H-indazol-7-yl)hexan-2-yl]-9a,11a-dimethylhexadecahydro-1H-cyclopenta[1,2-a]phenanthrene-6,7-diol]",,,0.055,48,
"COc1ccc(C(O)CCC[C@@H](C)[C@H]2CC[C@H]3[C@H]4[C@H](CC[C@]23C)[C@@]2(C)CC[C@H](O)[C@H](O)[C@@H]2CC4(F)F)c(F)n1 (single isomer, unassigned) [Compound 241, (1R,3aS,3bS,5aR,6R,7S,9aR,9bS,11aR)-4,4-difluoro-1-[(2R,6R)-6-(2-fluoro-6-methoxypyridin-3-yl)-6-hydroxyhexan-2-yl]-9a,11a-dimethylhexadecahydro-1H-cyclopenta[1,2-a]phenanthrene-6,7-diol or (1R,3aS,3bS,5aR,6R,7S,9aR,9bS,11aR)-4,4-difluoro-1-[(2R,6S)-6-(2-fluoro-6-methoxypyridin-3-yl)-6-hydroxyhexan-2-yl]-9a,11a-dimethylhexadecahydro-1H-cyclopenta[1,2-a]phenanthrene-6,7-diol]",,,0.14,,< 200
"CCOc1nc(F)ccc1[C@@H](O)CCC[C@@H](C)[C@H]1CC[C@H]2[C@H]3[C@H](CC[C@]12C)[C@@]1(C)CC[C@H](O)[C@H](O)[C@@H]1CC3(F)F (single isomer, unassigned) [Compound 289]",,,0.342,,< 200
"COc1cc(F)ccc1C(O)CCC[C@@H](C)[C@H]1CC[C@H]2[C@H]3[C@H](CC[C@]12C)[C@@]1(C)CC[C@H](O)C(=O)[C@@H]1CC3(F)F (stereo partly drawn) [Compound 184, (1R,3aS,3bS,5aR,7S,9aR,9bS,11aR)-4,4-difluoro-1-[(2R)-6-(4-fluoro-2-methoxyphenyl)-6-hydroxyhexan-2-yl]-7-hydroxy-9a,11a-dimethylhexadecahydro-1H-cyclopenta[1,2-a]phenanthren-6-one]",,,0.031,,< 200
"C[C@H](CCCC(O)c1cccc2c1OC(F)(F)O2)[C@H]1CC[C@H]2[C@H]3[C@H](CC[C@]12C)[C@@]1(C)CC[C@H](O)[C@H](O)[C@@H]1CC3(F)F (single isomer, unassigned) [Compound 194, (1R,3aS,3bS,5aR,6R,7S,9aR,9bS,11aR)-1-[(2R,6S)-6-(2,2-difluorobenzo[d][1,3]dioxol-4-yl)-6-hydroxyhexan-2-yl]-4,4-difluoro-9a,11a-dimethylhexadecahydro-1H-cyclopenta[1,2-a]phenanthrene-6,7-diol or (1R,3aS,3bS,5aR,6R,7S,9aR,9bS,11aR)-1-[(2R,6R)-6-(2,2-difluorobenzo[d][1,3]dioxol-4-yl)-6-hydroxyhexan-2-yl]-4,4-difluoro-9a,11a-dimethylhexadecahydro-1H-cyclopenta[1,2-a]phenanthrene-6,7-diol]",,,0.102,,200 to 500
"C[C@H](CCCC(O)c1nc2cnccc2n1C)[C@H]1CC[C@H]2[C@H]3[C@H](CC[C@]12C)[C@@]1(C)CC[C@H](O)[C@H](O)[C@@H]1CC3(F)F (stereo partly drawn) [Compound 311, (1R,3aS,3bS,5aR,6R,7 S,9aR,9bS,11aR)-4,4-Difluoro-1-[(2R)-6-hydroxy-6-(1-methylimidazo[5,4-c]pyridin-2-yl)hexan-2-yl]-9a,11a-dimethylhexadecahydro-1H-cyclopenta[1,2-a]phenanthrene-6,7-diol]",,,0.072,,< 200
"C[C@H](CCCC(O)c1ccc(F)nc1F)[C@H]1CC[C@H]2[C@H]3[C@H](CC[C@]12C)[C@@]1(C)CC[C@H](O)[C@H](O)[C@@H]1CC3(F)F (single isomer, unassigned) [Compound 227, (1R,3aS,3bS,5aR,6R,7S,9aR,9bS,11aR)-1-[(2R,6R)-6-(2,6-difluoropyridin-3-yl)-6-hydroxyhexan-2-yl]-4,4-difluoro-9a,11a-dimethylhexadecahydro-1H-cyclopenta[1,2-a]phenanthrene-6,7-diol or (1R,3aS,3bS,5aR,6R,7S,9aR,9bS,11aR)-1-[(2R,6S)-6-(2,6-difluoropyridin-3-yl)-6-hydroxyhexan-2-yl]-4,4-difluoro-9a,11a-dimethylhexadecahydro-1H-cyclopenta[1,2-a]phenanthrene-6,7-diol]",0.014,,,,200 to 500
"C[C@H](CCC[C@@H](O)c1c(F)ccnc1F)[C@H]1CC[C@H]2[C@H]3[C@H](CC[C@]12C)[C@@]1(C)CC[C@H](O)[C@H](O)[C@@H]1CC3(F)F (single isomer, unassigned) [Compound 232]",,,0.151,,200 to 500
"COc1cccc(F)c1[C@H](O)CC[C@@H](C)[C@H]1CC[C@H]2[C@H]3[C@H](CC[C@]12C)[C@@]1(C)CC[C@H](O)[C@H](O)[C@@H]1CC3(F)F [Compound 346, (1R,3aS,3bS,5aR,6R,7S,9aR,9bS,11aR)-4,4-difluoro-1-[(2R,5R)-5-(2-fluoro-6-methoxyphenyl)-5-hydroxypentan-2-yl]-9a,11a-dimethylhexadecahydro-1H-cyclopenta[1,2-a]phenanthrene-6,7-diol]",,,0.056,,< 200
"COc1ccc(C(O)CCC[C@@H](C)[C@H]2CC[C@H]3C4=C(F)C[C@H]5[C@@H](O)[C@@H](O)CC[C@]5(C)[C@H]4CC[C@]23C)c(F)c1 (stereo partly drawn) [Compound 68, (1R,3aR,5aR,6R,7S,9aR,9bR,11aR)-4-fluoro-1-[(2R)-6-(2-fluoro-4-methoxyphenyl)-6-hydroxyhexan-2-yl]-9a,11a-dimethyl-2,3,3a,5,5a,6,7,8,9,9a,9b,10,11,11a-tetradecahydro-1H-cyclopenta[1,2-a]phenanthrene-6,7-diol]",,,0.434,,200 to 500
"COc1nc(F)cc(F)c1C(O)CCC[C@@H](C)[C@H]1CC[C@H]2[C@H]3[C@H](CC[C@]12C)[C@@]1(C)CC[C@H](O)[C@H](O)[C@@H]1CC3(F)F (stereo partly drawn) [Compound 206, (1R,3aS,3bS,5aR,6R,7S,9aR,9bS,11aR)-1-[(2R)-6-(4,6-difluoro-2-methoxypyridin-3-yl)-6-hydroxyhexan-2-yl]-4,4-difluoro-9a,11a-dimethylhexadecahydro-1H-cyclopenta[1,2-a]phenanthrene-6,7-diol]",,,0.145,,200 to 500
